# From US8597903B2, “Biotinidase assay” (Wallac Oy, priority 2009, dated 2013)
# Experiments:
# biotinidase = biological target: T1, biotinidase (Homo sapiens, UniProt P43251); experiment: Heterogenous biotinidase assay (DELFIA); assay type: biochemical; details: 10 nM substrate, blood spots, +37° C. for 2 hours, Eu signal by time-resolved fluorometer (FIG. 1-3)
# T1 construct: The blood spots (diameter 3.2 mm) were punched to the wells; from tissue; host or cells: dried blood spots (whole blood)
# T1 sequence (P43251 22-523): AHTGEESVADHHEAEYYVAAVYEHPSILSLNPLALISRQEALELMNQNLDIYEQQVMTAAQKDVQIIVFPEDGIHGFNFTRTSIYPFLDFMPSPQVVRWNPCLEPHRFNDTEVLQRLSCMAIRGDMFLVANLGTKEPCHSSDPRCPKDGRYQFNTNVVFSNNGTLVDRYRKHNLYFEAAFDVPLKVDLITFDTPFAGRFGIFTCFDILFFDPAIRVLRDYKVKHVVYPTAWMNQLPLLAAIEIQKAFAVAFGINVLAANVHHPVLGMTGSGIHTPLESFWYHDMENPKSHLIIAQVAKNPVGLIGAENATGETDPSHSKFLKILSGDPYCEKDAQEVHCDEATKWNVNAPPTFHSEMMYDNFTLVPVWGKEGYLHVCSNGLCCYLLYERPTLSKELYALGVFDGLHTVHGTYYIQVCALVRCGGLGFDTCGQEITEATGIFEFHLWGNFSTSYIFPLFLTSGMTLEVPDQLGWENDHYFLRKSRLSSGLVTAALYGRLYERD
# Procedure: A heterogenous assay is based on the use of streptavidin-specific antibody, streptavidin and biotinidase substrates (compounds 3, 5 and 7). Accordingly, 200 μA of anti-streptavidin antibody (1 μg per well, Novus Biologicals cat. No. NB200-448) was pipetted to the wells of the microplate in coating buffer (50 mM TRIS pH 7.4+50 mM NaCl). The plate was incubated at RT for 3 h. After that the plate was washed 2 times with Delfia Wash solution. The blood spots (diameter 3.2 mm) were punched to the wells. 10 nM of biotinidase substrate was added to the wells in reaction buffer (50 mM MES pH 6, 0.05% BSA, 0.01% TWEEN, 50 mM NaCl). The plate was incubated with slow shaking at +37° C. for 2 hours. 100 μA 20 nM streptavidin in reaction buffer was added into the wells. The plate was incubated for 1 hour at RT with slow shaking. The plate was washed for 4 times with Delfia Wash solution. 200 μA of Delfia Inducer was added to the wells and incubated for 15 minutes at RT. The Eu signal was measured with a time-resolved fluorometer. The more there is biotinidase enzyme in the sample the lower the Eu signal is.
# [1] = Storage stability of the substrate; assay type: physicochemical; details: prolonged storage at ambient temperature
# Procedure: Biocytin (8, 5 mg, 13 μmol) and the isothiocyanate chelate 9 (23 mg, 33 μmol) synthesized as disclosed in U.S. Pat. No. 4,920,195, were dissolved in the mixture of pyridine, water and triethylamine (9:1.5:01, v/v/v; 250 μL) and the mixture was stirred overnight at rt. The product was isolated by precipitation with acetone and purified with HPLC. Compound 10: ESI-TOF MS found, 1047.13; calcd for C40H46EuN8O12S^−1047.18.
stability on storage [1],Compound,function as a substrate for the enzyme in a biotinidase assay (biotinidase)
–,O=C(O)CN(CCN(CC(=O)O)CC(Cc1ccc(NC(=O)CCCCC2SCC3NC(=O)NC32)cc1)N(CC(=O)O)CC(=O)O)CC(=O)O (stereo not drawn) [Compound 3],does not function as a substrate
–,O=C(O)CN(CCN(CC(=O)O)CC(Cc1ccc(NC(=O)CCCCCNC(=O)CCCCC2SCC3NC(=O)NC32)cc1)N(CC(=O)O)CC(=O)O)CC(=O)O (stereo not drawn) [Compound 5],functions as a favorable substrate
prone to Edman degradation,O=C(O)CN(CC(=O)O)Cc1cc(C#Cc2ccc(NC(=S)NC(CCCCNC(=O)CCCCC3SCC4NC(=O)NC43)C(=O)O)cc2)cc(CN(CC(=O)O)CC(=O)O)n1 (stereo not drawn) [Compound 10],–
